Data taken from patent US20230113378A1, “Methods Of Treating Multiple Sclerosis” (priority 2021, published 2023).
Several values for one entry are separate records, joined by “and”; a condition that tells them apart may be missing. Equal entries are not always repeated. Entries after “also recorded” stand apart in the source; their conditions may differ.

Tests used:
influenza vaccine = settings: observed previously; cited from earlier work
[1] = system: SARS-CoV-2 anti-spike-protein (spike) antibody; assay: SARS-CoV-2 anti-spike IgG ELISA before and after COVID-19 vaccination in RMS patients on ponesimod (study AC-058B202); format: in vivo, human
Protocol: (§1) Participants in this study receiving 20 mg ponesimod who reported COVID-19 vaccination were analyzed. Blood samples collected before and at least 3 weeks after COVID-19 vaccination were tested for SARS-CoV-2 anti-spike-protein (spike) antibody concentrations (Human SARS-CoV-2 PreSpike IgG ELISA, Nexelis). Response to vaccination was defined as seroconversion in case of negative pre-vaccination antibody testing, or a 4-fold antibody concentration increase in case of positive pre-vaccination antibody result. COVID-19 infection adverse events (AEs) were evaluated in this study sub-population.
Of the 134 participants, 49 participants had both pre- and post-vaccination blood samples tested for anti-spike antibody concentrations. Out of these 49 participants, 40 (81.6%) met the pre-specified definition of response to COVID-19 vaccination. […] Response was defined as pre-vaccination titer≤lower limit of quantification (LLOQ) and post-vaccination titer >LLOQ; or pre-vaccination titer >LLOQ (i.e., seroconversion in case of negative pre-vaccination antibody testing) and post-vaccination titer >4× increase (i.e., a 4-fold antibody concentration increase in case of positive pre-vaccination antibody result).
Patients in the Phase 2 extension study AC-058B202 receiving ponesimod 20 mg who reported COVID-19 vaccination were included in this analysis. Blood samples collected before and at least 3 weeks after vaccination were evaluated with Human SARS-CoV-2 PreSpike IgG (spike antibody) enzyme-linked immunoassay (Nexelis). A responder to vaccination was defined as seroconversion in case of negative pre-vaccination antibody testing, or a 4-fold antibody concentration increase in case of positive pre-vaccination antibody result. Responder analysis was performed by vaccine type, and by pre-vaccination lymphocyte count.

influenza A/PR/8/34 = assay: Neutralizing antibody response to inactivated influenza A/PR/8/34 immunization in mice on ponesimod chow; format: in vivo, female BALB/c mice
Description: The neutralizing antibody response to a single intramuscular injection of purified and inactivated influenza A/PR/8/34 was compared in female BALB/c mice that were maintained on different oral ponesimod regimens (Group 1: standard chow; Group 2: continuous specialty chow with ponesimod at 1000 ppm; Group 3: specialty chow with a 4-day discontinuation around immunization).
Mean percentage inhibition of viral infection by A/PR/8/34 with serum samples, ±SEM.
Table 5 presents data regarding dilution from neat serum that results in 50% inhibition of viral infection (ID50).

[2] = COVID-19 infection adverse events in vaccinated RMS patients on ponesimod (study AC-058B202); format: in vivo, human
Protocol: as §1

[3] = inactivated virus vaccines, post-vaccination
[4] = inactivated virus vaccines, pre-vaccination
[5] = mRNA vaccines, post-vaccination
[6] = mixed vaccines, post-vaccination
[7] = mixed vaccines, pre-vaccination
[8] = subjects pre-vaccination negative
[9] = subjects pre-vaccination positive
[10] = unspecified vaccines, post-vaccination
[11] = unspecified vaccines, pre-vaccination
[12] = viral vector vaccines, post-vaccination

SMILES: CCc1cc(/C(C)=N/OCc2ccc(C3CCCCC3)c(C(F)(F)F)c2)ccc1CN1CC(C(=O)O)C1 [siponimod]
- Vaccination response to the influenza vaccine (influenza vaccine): reduced vaccination response

SMILES: CCC/N=C1\S/C(=C\c2ccc(OC[C@H](O)CO)c(Cl)c2)C(=O)N1c1ccccc1C [ponesimod, (R)-5-[3-chloro-4-(2,3-dihydroxy-propoxy)-benz[Z]ylidene]-2-([Z]-propylimino)-3-o-tolyl-thiazolidin-4-one]
- Fold increase from baseline of S binding antibody, geometric mean (95% CI) ([1]; all vaccines, 1st vaccine regimen, ponesimod 20 mg): 12.90 (7.64; 21.78)
- Responders (n/N) (%) (95% CI) ([1]; all vaccines, seroconversion or >4-fold increase): 40 (81.6%) n/N (%)
- Fold increase from baseline, geometric mean (95% CI) ([1]; inactivated virus vaccines): 1.29 (0.50; 3.32)
- Responders (n/N) (%) (95% CI) ([1]; inactivated virus vaccines): 2 (33.3%) n/N (%)
- Positive sample n (%) (95% CI) [1, 3]: 6 (66.7%) (29.93; 92.51) n (%)
- S binding antibody concentration, geometric mean (95% CI) [1, 3]: 84.22 (<LLOQ; 189.22) EU/mL
- Positive sample n (%) (95% CI) [1, 4]: 3 (50.0%) (11.81; 88.19) n (%)
- S binding antibody concentration, geometric mean (95% CI) [1, 4]: 65.88 (<LLOQ; 203.92) EU/mL
- Patients meeting antibody concentration responder criteria ([1]; mRNA COVID-19 vaccines and/or pre-vaccination lymphocyte counts ≥500 cells/mm^3): > 90%
- Fold increase from baseline, geometric mean (95% CI) ([1]; mRNA vaccines): 20.68 (11.35; 37.68)
- Responders (n/N) (%) (95% CI) ([1]; mRNA vaccines): 29 (90.6%) n/N (%)
- Positive sample n (%) (95% CI) [1, 5]: 62 (88.6%) (78.72; 94.93) n (%)
- S binding antibody concentration, geometric mean (95% CI) [1, 5]: 833.22 (513.88; 1351.00) EU/mL
- Positive sample n (%) (95% CI) ([1]; mRNA vaccines, pre-vaccination): 5 (15.6%) (5.28; 32.79) n (%)
- Responders n (%) ([1]; mixed or unspecified vaccine types, 4 participants): 4 (100%) n (%)
- Fold increase from baseline, geometric mean ([1]; mixed vaccines): 11.49
- Positive sample n (%) [1, 6]: 5 (100.0%) n (%)
- S binding antibody concentration, geometric mean [1, 6]: 1525.40 EU/mL
- Positive sample n (%) [1, 7]: 1 (33.3%) n (%)
- S binding antibody concentration, geometric mean [1, 7]: <LLOQ
- SARS-CoV-2 S binding antibody concentration, geometric mean (95% CI) ([1]; post-vaccination, all vaccines, 1st vaccine regimen, ponesimod 20 mg): 621.25 (414.96; 930.08) EU/mL
- Positive sample n (%) (95% CI) ([1]; post-vaccination, all vaccines, positive = value > LLOQ): 89 (86.4%)(78.25; 92.37) n (%)
- Responders n (%) ([1]; pre-vaccination lymphocyte count <500 cells/mm^3, 16 participants): 9 (56.3%) n (%)
- Responders n (%) ([1]; pre-vaccination lymphocyte count ≥500 cells/mm^3, 32 participants): 30 (93.8%) n (%)
- Positive sample n (%) (95% CI) ([1]; pre-vaccination, all vaccines, positive = value > LLOQ): 11 (22.4%) (11.77; 36.62) n (%)
- Post-vaccination Negative N (%) [1, 8]: 5 (13.2%) N (%)
- Post-vaccination Responder N (%) [1, 8]: 33 (86.8%) N (%)
- Post-vaccination Positive N (%) ([1]; subjects pre-vaccination negative (seroconversion)): 33 (86.8%) N (%)
- Post-vaccination Negative N (%) [1, 9]: 0 N (%)
- Post-vaccination Positive N (%) [1, 9]: 11 (100.0%) N (%)
- Post-vaccination Responder N (%) [1, 9]: 7 (63.6%) N (%)
- Fold increase from baseline, geometric mean ([1]; unspecified vaccines): 182.01
- Positive sample n (%) [1, 10]: 2 (100.0%) n (%)
- S binding antibody concentration, geometric mean [1, 10]: 944.31 EU/mL
- Positive sample n (%) [1, 11]: 0 n (%)
- S binding antibody concentration, geometric mean [1, 11]: <LLOQ
- Fold increase from baseline, geometric mean (95% CI) ([1]; viral vector vaccines): 7.76 (2.22; 27.11)
- Responders (n/N) (%) (95% CI) ([1]; viral vector vaccines): 5 (71.4%) n/N (%)
- Positive sample n (%) (95% CI) [1, 12]: 14 (82.4%) (56.57; 96.2) n (%)
- S binding antibody concentration, geometric mean (95% CI) [1, 12]: 390.49 (140.01; 1089.07) EU/mL
- Positive sample n (%) (95% CI) ([1]; viral vector vaccines, pre-vaccination): 2 (28.6%) (3.67; 70.96) n (%)
- Inhibition titer: dilution from neat serum that results in 50% inhibition of viral infection (ID50) (influenza A/PR/8/34; Concomitant (Group 2), Day 35): 0.004
- Inhibition titer: dilution from neat serum that results in 50% inhibition of viral infection (ID50) (influenza A/PR/8/34; Concomitant (Group 2), Day 63): 0.003
- Inhibition titer: dilution from neat serum that results in 50% inhibition of viral infection (ID50) (influenza A/PR/8/34; Concomitant (Group 2), Day 91): 0.004
- Inhibition titer: dilution from neat serum that results in 50% inhibition of viral infection (ID50) (influenza A/PR/8/34; Concomitant (Group 2, continuous ponesimod chow 1000 ppm), Day −1): 0.050
- Inhibition titer: dilution from neat serum that results in 50% inhibition of viral infection (ID50) (influenza A/PR/8/34; Discontinued (Group 3), Day 35): 0.001
- Inhibition titer: dilution from neat serum that results in 50% inhibition of viral infection (ID50) (influenza A/PR/8/34; Discontinued (Group 3), Day 63): 0.002
- Inhibition titer: dilution from neat serum that results in 50% inhibition of viral infection (ID50) (influenza A/PR/8/34; Discontinued (Group 3), Day 91): 0.003
- Inhibition titer: dilution from neat serum that results in 50% inhibition of viral infection (ID50) (influenza A/PR/8/34; Discontinued (Group 3, 4-day discontinuation around immunization), Day −1): 0.001
- Vaccine (antibody) response compared to control mice (influenza A/PR/8/34; Group 2, continuously on ponesimod chow, inactivated H1N1 influenza vaccine): attenuated vaccine response; also recorded: blunted, but not absent
- COVID-19 infection AEs leading to death, n (%) ([2]; >=14 D Post Vx): 0 n (%)
- COVID-19 infection AEs leading to treatment discontinuation, n (%) ([2]; >=14 D Post Vx): 0 n (%)
- COVID-19 infection AEs leading to treatment interruption, n (%) ([2]; >=14 D Post Vx): 4 (3.0%) n (%)
- COVID-19 infection AEs, severity Mild, n (%) ([2]; >=14 D Post Vx): 13 (9.7%) n (%)
- COVID-19 infection AEs, severity Moderate, n (%) ([2]; >=14 D Post Vx): 4 (3.0%) n (%)
- COVID-19 infection AEs, severity Severe, n (%) ([2]; >=14 D Post Vx): 0 n (%)
- Serious COVID-19 infection AEs, n (%) ([2]; >=14 D Post Vx): 0 n (%)
- Subjects with COVID-19 infection AEs, n (%) ([2]; >=14 D Post Vx): 17 (12.7%) n (%)
- COVID-19 infection AEs leading to death, n (%) ([2]; >=28 D Post Vx): 0 n (%)
- COVID-19 infection AEs leading to treatment discontinuation, n (%) ([2]; >=28 D Post Vx): 0 n (%)
- COVID-19 infection AEs leading to treatment interruption, n (%) ([2]; >=28 D Post Vx): 4 (3.0%) n (%)
- COVID-19 infection AEs, severity Mild, n (%) ([2]; >=28 D Post Vx): 13 (9.7%) n (%)
- COVID-19 infection AEs, severity Moderate, n (%) ([2]; >=28 D Post Vx): 4 (3.0%) n (%)
- COVID-19 infection AEs, severity Severe, n (%) ([2]; >=28 D Post Vx): 0 n (%)
- Serious COVID-19 infection AEs, n (%) ([2]; >=28 D Post Vx): 0 n (%)
- Subjects with COVID-19 infection AEs, n (%) ([2]; >=28 D Post Vx): 17 (12.7%) n (%)
- COVID-19 infection AEs leading to death, n (%) ([2]; Post-Vx): 0 n (%)
- COVID-19 infection AEs leading to treatment discontinuation, n (%) ([2]; Post-Vx): 0 n (%)
- COVID-19 infection AEs leading to treatment interruption, n (%) ([2]; Post-Vx): 4 (3.0%) n (%)
- COVID-19 infection AEs, severity Mild, n (%) ([2]; Post-Vx): 13 (9.7%) n (%)
- COVID-19 infection AEs, severity Moderate, n (%) ([2]; Post-Vx): 4 (3.0%) n (%)
- COVID-19 infection AEs, severity Severe, n (%) ([2]; Post-Vx): 0 n (%)
- Serious COVID-19 infection AEs, n (%) ([2]; Post-Vx): 0 n (%)
- Subjects with COVID-19 infection AEs, n (%) ([2]; Post-Vx): 17 n (%) and 17 (12.7%) n (%)
- COVID-19 infection AEs leading to death, n (%) ([2]; Pre-Vx): 0 n (%)
- COVID-19 infection AEs leading to treatment discontinuation, n (%) ([2]; Pre-Vx): 0 n (%)
- COVID-19 infection AEs leading to treatment interruption, n (%) ([2]; Pre-Vx): 5 (3.7%) n (%)
- COVID-19 infection AEs, severity Mild, n (%) ([2]; Pre-Vx): 18 (13.4%) n (%)
- COVID-19 infection AEs, severity Moderate, n (%) ([2]; Pre-Vx): 2 (1.5%) n (%)
- COVID-19 infection AEs, severity Severe, n (%) ([2]; Pre-Vx): 0 n (%)
- Serious COVID-19 infection AEs, n (%) ([2]; Pre-Vx): 0 n (%)
- Subjects with COVID-19 infection AEs, n (%) ([2]; Pre-Vx): 20 n (%) and 20 (14.9%) n (%)
- COVID-19 infection AEs leading to treatment interruption, n (%) ([2]; Total): 7 (5.2%) n (%)
- COVID-19 infection AEs, severity Mild, n (%) ([2]; Total): 28 (20.9%) n (%)
- COVID-19 infection AEs, severity Moderate, n (%) ([2]; Total): 6 (4.5%) n (%)
- Subjects with COVID-19 infection AEs, n (%) ([2]; Total): 33 (24.6%) n (%)
- Plasma drug levels after wash-out (Group 3, after a 2-day wash-out period): cleared from plasma
- Plasma drug levels (Groups 2 and 3, by Day 5, ponesimod chow 1000 ppm): sufficiently high to reduce lymphocyte counts
